Results taken from article PMC9250534, “Synthesis and direct assay of large macrocycle diversities by combinatorial late-stage modification at picomole scale” (Nature Communications, 2022).
Numbered stars: 1 amine (or outer) side, 2 acyl side, 3 side chain; on linkers, the order of the positions; unused ones are H or OH. Bridge positions count the residues as written; N and C are the ends. Square brackets hold non-standard residues; d marks the D form. Peptide text beside a SMILES is read from it. * marks the point of attachment. 2Thenoyl(5-Cl) = O=C(c1ccc(Cl)s1)*; Pyrazinecarbonyl = O=C(c1cnccn1)*; Cysteamide = C(CS[*:3])N[*:1]; Isovaleryl = CC(C)CC(=O)*; Api = NC1(C(=O)O)CCNCC1; Bz = O=C(c1ccccc1)*; Mpa = O=C(O)CCS

Biological target: T1, thrombin (Homo sapiens, UniProt P00734)
T1 construct: consists of two polypeptide chains of 36 (light chain) and 259 amino acid
Test: Thrombin inhibition screen of crude macrocycle reactions (residual thrombin activity, fluorogenic substrate Z-Gly-Gly-Arg-AMC)
Type: biochemical
Conditions: 10 µM macrocycle concentration; for % thrombin activity, Original screen / % thrombin activity, Repeat screen: macrocycles containing acid 14, crude reaction; for % thrombin activity, Repeat screen: replicate reaction and screen; for percent residual thrombin activity: crude reactions, Library 1a-l, scaffold AA1-AA2-AA3 combined with 1-16 or '-'
Method in brief: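 Residual activity was measured as the AMC release rate after adding 50 μM Z-Gly-Gly-Arg-AMC. This followed a 10-min room-temperature preincubation of 2 nM thrombin with 10 μM single macrocycles in pH 7.4 Tris buffer (0.6% DMSO). Percent inhibition was taken against the mean slope of DMSO controls.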

Structure (SMILES) | % thrombin activity, Original screen [%] | % thrombin activity, Repeat screen [%] | percent residual thrombin activity [%]
O=C1CCSSCCNC(=O)C2CC(NC(=O)c3ccc(Cl)s3)CN2C(=O)CCNC(=O)C(Cc2ccccc2)N1 (stereo not shown) [X f B2 D5] | 95.3 | 101.2 | 
O=C1CCSSCCNC(=O)C2CC(NC(=O)c3ccc(Cl)s3)CN2C(=O)C2CCCN(C2)C(=O)C(Cc2ccccc2)N1 (stereo not shown) [X f B4 D5] | 91.9 | 99.4 | 
O=C1CCSSCCNC(=O)c2ccc(cc2)CNC(=O)[C@H](CCCCNC(=O)c2ccc(Cl)s2)NC(=O)[C@@H](Cc2ccccc2)N1 [X f D1 B3] | 100.5 | 105.5 | 
O=C1CCNC(=O)C2(CCN(C(=O)c3ccc(Cl)s3)CC2)NC(=O)[C@@H](Cc2ccccc2)NC(=O)CCSSCCN1 [X f D6 B2] | 97.4 | 95.6 | 
O=C1CCSSCCNC(=O)C2(CCN(C(=O)c3ccc(Cl)s3)CC2)NC(=O)[C@@H]2CCCN2C(=O)[C@@H](CO)N1 [X s B1 D6] ([Mpa][dS]P[Api](2Thenoyl(5-Cl))-Cysteamide; disulfide 1-C) | 104.7 | 110.4 | 
O=C1CCSSCCNC(=O)C2CCCN2C(=O)C2(CCN(C(=O)c3ccc(Cl)s3)CC2)NC(=O)C(CO)N1 (stereo not shown) [X s D6 B1] ([Mpa]S[Api](2Thenoyl(5-Cl))P-Cysteamide; disulfide 1-C; configuration not given here) | 97.6 | 99.9 | 
O=C1CCSSCCNC(=O)[C@H]2CCCN(C2)C(=O)C2(CCN(C(=O)c3ccc(Cl)s3)CC2)NC(=O)[C@@H](CO)N1 [X s D6 B4] | 93.8 | 97.7 | 
CC(C)[C@H]1NC(=O)CCSSCCNC(=O)c2cccc(c2)CNC(=O)[C@@H](CNC(=O)c2ccc(Cl)s2)NC1=O [X v D4 B5] | 103.4 | 104.1 | 
O=C1CCSSCCNC(=O)c2cccc(c2)CNC(=O)[C@@H](CNC(=O)c2ccc(Cl)s2)NC(=O)[C@@H](Cc2c[nH]c3ccccc23)N1 [X w D4 B5] | 95.1 | 100.3 | 
O=C1CCSSCCNC(=O)C2(CC2)CNC(=O)C2(CCN(C(=O)c3ccc(Cl)s3)CC2)NC(=O)[C@@H](Cc2c[nH]c3ccccc23)N1 [X w D6 B6] | 89.3 | 97.3 | 
O=C1CCSSCCNC(=O)C2CCCN(C2)C(=O)C2CC(NC(=O)c3ccc(Cl)s3)CN2C(=O)C(Cc2ccc(O)cc2)N1 (stereo not shown) [X y D5 B4] | 109.6 | 115.2 | 
O=C1CCSSCCNC(=O)[C@H]2CCCN(C2)C(=O)[C@H](CCCCNC(=O)c2c[nH]c(=O)cn2)NC(=O)[C@H](Cc2ccc(O)cc2)N1 [Y-D1-B4/9] |  |  | 103.469
COc1ccc(C(=O)NCCCC[C@@H]2NC(=O)[C@H](Cc3ccc(O)cc3)NC(=O)CCSSCCNC(=O)[C@H]3CCCN(C3)C2=O)cn1 [Y-D1-B4/10] |  |  | 101.956
O=C1CCSSCCNC(=O)[C@H]2CCCN(C2)C(=O)[C@H](CCCCNC(=O)c2c[nH]c(=O)[nH]c2=O)NC(=O)[C@H](Cc2ccc(O)cc2)N1 [Y-D1-B4/11] |  |  | 107.832
O=C1CCSSCCNC(=O)[C@H]2CCCN(C2)C(=O)[C@H](CCCCNC(=O)c2ccc(Cl)s2)NC(=O)[C@H](Cc2ccc(O)cc2)N1 [Y-D1-B4/14] |  |  | 97.8547
Cc1nnsc1C(=O)NCCCC[C@@H]1NC(=O)[C@H](Cc2ccc(O)cc2)NC(=O)CCSSCCNC(=O)[C@H]2CCCN(C2)C1=O [Y-D1-B4/15] |  |  | 104.272
NCCCC[C@@H]1NC(=O)[C@H](Cc2ccc(O)cc2)NC(=O)CCSSCCNC(=O)[C@H]2CCCN(C2)C1=O [Y-D1-B4/-] |  |  | 108.211
CC1NC(=O)CCSSCCNC(=O)C(CCCCNC(=O)c2ccccc2)NC(=O)C2CCCN2C1=O (stereo not shown) [a-B1-D1/1] ([Mpa]APK(Bz)-Cysteamide; disulfide 1-C; configuration not given here) |  |  | 107.016
C[C@H]1NC(=O)CCSSCCNC(=O)[C@H](CCCCNC(=O)c2cnccn2)NC(=O)[C@@H]2CCCN2C1=O [a-B1-D1/2] ([Mpa][dA]PK(Pyrazinecarbonyl)-Cysteamide; disulfide 1-C) |  |  | 113.236
CC(C)CC(=O)NCCCC[C@@H]1NC(=O)[C@@H]2CCCN2C(=O)[C@@H](C)NC(=O)CCSSCCNC1=O [a-B1-D1/8] ([Mpa][dA]PK(Isovaleryl)-Cysteamide; disulfide 1-C) |  |  | 110.343
